Experimental data as given in PMC11855827, “High-Throughput Screening of Five Compound Libraries for Anthelmintic Activity and Toxicity Leads to the Discovery of Two Flavonoid Compounds” (International Journal of Molecular Sciences, 2025).
Values joined by “and” are separate entries in the source; they are usually repeats but may differ in a detail not shown here. Equal entries are not always repeated. Where two headings read alike, the source gives them in different places.

Test system: C. elegans
[1] = Table S2, C. elegans SS assay, 110 μM, 0 h, averages of 4 data points
[2] = Table S2, C. elegans SS assay, 110 μM, 24 h, averages of 4 data points

Compound | Percentage of motility inhibition 0 h [1] | Percentage of motility inhibition 24 h [2] | Percentage of motility inhibition 0 h (110 µM) [%] | Percentage of motility inhibition 24 h (110 µM) [%]
COc1cc2c(cc1OC)[C@H]1Cc3ccc(OC)c(OC)c3CN1CC2 [D‐Tetrahydropalmatine] | 0% | 0% |  | 
C[C@H]1CC[C@H]2[C@H](C)[C@H]3CC[C@@H]4[C@@H](C[C@H]5[C@H]4CC(=O)[C@H]4C[C@@H](O)CC[C@@]45C)[C@@H]3CN2C1 [Ebeiedinone] | 0% | 4% |  | 
CC1(C)CC[C@]2(C(=O)O[C@@H]3O[C@H](CO)[C@@H](O)[C@H](O)[C@H]3O)[C@H](O)C[C@]3(C)C(=CC[C@@H]4[C@@]5(C)CC[C@H](O)C(C)(C)[C@@H]5CC[C@]43C)[C@@H]2C1 [Echinocystic acid 28-O-β-D-glucoside] | 36% | 41% |  | 
CC1(C)CC[C@]2(C(=O)O[C@@H]3O[C@H](CO)[C@@H](O)[C@H](O)[C@H]3O)[C@H](O)C[C@]3(C)C(=CC[C@@H]4[C@@]5(C)CC[C@H](O[C@@H]6O[C@H](CO)[C@@H](O)[C@H](O)[C@H]6O)C(C)(C)[C@@H]5CC[C@]43C)[C@@H]2C1 [Eclalbasaponin I] | 35% | 35% |  | 
Clc1ccc(COC(Cn2ccnc2)c2ccc(Cl)cc2Cl)cc1.O=[N+]([O-])O (stereo not drawn) [Econazole (nitrate)] | 35% | 13% |  | 
C[C@H]1CC[C@@H]2N(C1)C[C@H]1[C@@H]3C[C@H]4[C@@H](CC(=O)[C@H]5C[C@@H](O[C@@H]6O[C@H](CO)[C@@H](O)[C@H](O)[C@H]6O)CC[C@@]54C)[C@@H]3CC[C@@H]1[C@]2(C)O [Edpetiline] | 11% | 56% |  | 
Cc1c2ccncc2c(C)c2c1[nH]c1ccccc12.Cl [Ellipticine (hydrochloride)] | 9% | 11% |  | 
CC[C@H]1CN2CCc3cc(OC)c(OC)cc3[C@@H]2C[C@@H]1C[C@H]1NCCc2cc(OC)c(OC)cc21.Cl.Cl.O [Emetine (dihydrochloride hydrate)] | 52% | 7% |  | 
CC(C)C[C@H]1C(=O)O[C@H](Cc2ccc(N3CCOCC3)cc2)C(=O)N(C)[C@@H](CC(C)C)C(=O)O[C@H](C)C(=O)N(C)[C@@H](CC(C)C)C(=O)O[C@H](Cc2ccc(N3CCOCC3)cc2)C(=O)N(C)[C@@H](CC(C)C)C(=O)O[C@H](C)C(=O)N1C [Emodepside] | 69% | 47% |  | 
CCn1cc(C(=O)O)c(=O)c2cc(F)c(N3CCNCC3)nc21 [Enoxacin (hydrate)] | 17% | 0% |  | 
CS/C=C/C(=O)NCCO[C@@H]1O[C@H](CO)[C@@H](O)[C@H](O)[C@H]1O [Entadamide‐A‐β‐D‐glucopyranoside] | 24% | 13% |  | 
C=C1[C@H](CO)[C@@H](O)C[C@@H]1n1cnc2c(=O)[nH]c(N)nc21.O [Entecavir (monohydrate)] | 18% | 3% |  | 
COc1cc2c(cc1OC)-c1cc3ccc4c(c3c[n+]1CC2)OCO4.[Cl-] [Epiberberine (chloride)] | 22% | 8% |  | 
C=CC1CNC(=S)O1 (stereo not drawn) [Epigoitrin] | 6% | 0% |  | 
COc1ccc(-c2oc3c(CC=C(C)C)c(O[C@@H]4O[C@H](CO)[C@@H](O)[C@H](O)[C@H]4O)cc(O)c3c(=O)c2O[C@@H]2O[C@@H](C)[C@H](O)[C@@H](O[C@@H]3O[C@H](CO)[C@@H](O)[C@H](O)[C@H]3O)[C@H]2O)cc1 [Epimedin A1] | 6% | 5% |  | 
COc1ccc(-c2oc3c(CC=C(C)C)c(O[C@@H]4O[C@H](CO)[C@@H](O)[C@H](O)[C@H]4O)cc(O)c3c(=O)c2O[C@@H]2O[C@@H](C)[C@H](O)[C@@H](O)[C@H]2O[C@@H]2OC[C@@H](O)[C@H](O)[C@H]2O)cc1 [Epimedin B] | 15% | 32% |  | 
COc1ccc(-c2oc3c(CC=C(C)C)c(O[C@@H]4O[C@H](CO)[C@@H](O)[C@H](O)[C@H]4O)cc(O)c3c(=O)c2O[C@@H]2O[C@@H](C)[C@H](O)[C@@H](O)[C@H]2O[C@@H]2O[C@@H](C)[C@H](O)[C@@H](O)[C@H]2O)cc1 [Epmedin C] | 0% | 0% |  | 
C=C1C(=O)O[C@H]2[C@H]1CC[C@]1(C)O[C@@]13CC[C@@](C)(O)[C@H]23 [Epoxymicheliolide] | 16% | 24% |  | 
C[N+](C)(C)[C@@H](Cc1c[nH]c(=S)[nH]1)C(=O)[O-] [Ergothioneine] | 16% | 0% |  | 
O=C1C[C@@H](c2ccc(O)c(O)c2)Oc2cc(O[C@@H]3O[C@H](CO)[C@@H](O)[C@H](O)[C@H]3O)cc(O)c21 [Eriodictyol‐7‐O‐glucoside] | 11% | 4% |  | 

Compound | Percentage of motility inhibition 0 h [1] | Percentage of motility inhibition 24 h [2] | Percentage of motility inhibition 0 h (110 µM) [%] | Percentage of motility inhibition 24 h (110 µM) [%]
C[C@@H](O)[C@H]1C(=O)N2C(C(=O)[O-])=C(S[C@@H]3CN[C@H](C(=O)Nc4cccc(C(=O)O)c4)C3)[C@H](C)[C@H]12.[Na+] [Ertapenem sodium] | 0% | 0% |  | 
COC(=O)[C@@]1(C)CC[C@]2(C(=O)O)CC[C@]3(C)C(=CC[C@@H]4[C@@]5(C)C[C@H](O)[C@H](O[C@@H]6OC[C@@H](O[C@@H]7O[C@H](CO)[C@@H](O)[C@H](O)[C@H]7O)[C@H](O)[C@H]6O)[C@@](C)(CO)[C@@H]5CC[C@]43C)[C@@H]2C1 [Esculentoside A] | 17% | 3% |  | 
COC(=O)[C@]1(C)CC[C@]2(C(=O)O[C@@H]3O[C@H](CO)[C@@H](O)[C@H](O)[C@H]3O)CC[C@]3(C)C(=CC[C@@H]4[C@@]5(C)C[C@H](O)[C@H](O[C@@H]6OC[C@@H](O[C@@H]7O[C@H](CO)[C@@H](O)[C@H](O)[C@H]7O)[C@H](O)[C@H]6O)[C@@](C)(CO)C5CC[C@]43C)[C@H]2C1 (stereo partly drawn) [Esculentoside H] | 0% | 17% |  | 
CC[C@@H](CO)NCCN[C@@H](CC)CO.Cl.Cl [Ethambutol (dihydrochloride)] | 26% | 6% |  | 
CCOC1c2c(ccc3c2OCO3)-c2ccc3cc4c(cc3c2N1C)OCO4 (stereo not drawn) [Ethoxysanguinarine] | 0% | 31% |  | 
C=C1C(=O)O[C@@H]2/C=C(\C)[C@@H](OC(C)=O)C/C=C(\COC(C)=O)C[C@@H](OC(=O)/C(C)=C/CO)[C@@H]12 [Eupalinolide A] |  |  | 11 | 38
C=C1C(=O)O[C@@H]2/C=C(\C)[C@@H](OC(C)=O)C/C=C(\COC(C)=O)C[C@@H](OC(=O)/C(C)=C/CO)[C@@H]12 [Eupalinolide B] |  |  | 0 | 0
C=C1C(=O)O[C@@H]2/C=C(/C)C(OC(C)=O)C/C=C(/C=O)CC(OC(=O)/C(C)=C/CO)[C@@H]12 (stereo partly drawn) [Eupalinolide O] | 1% | 9% |  | 
C=C1[C@H](OC(=O)c2ccccc2)C[C@H]2[C@@H](/C=C(\C)C(=O)[C@@]3(OC(C)=O)C[C@H](C)[C@H](OC(=O)c4ccccc4)[C@@H]3[C@H]1OC(C)=O)C2(C)C [Euphorbia Factor L2] | 27% | 21% |  | 
CC(=O)OC/C1=C\[C@H]2[C@@H](OC(=O)/C=C/c3ccccc3)[C@@H](C)C[C@]2(OC(C)=O)C(=O)/C(C)=C/[C@@H]2[C@H](CC1)C2(C)C [Euphorbia factor L7a] | 21% | 23% |  | 
CC(=O)OC/C1=C/C[C@H]2[C@@H](/C=C(\C)C(=O)[C@@]3(OC(C)=O)C[C@H](C)[C@H](OC(=O)c4ccccc4)[C@@H]3[C@H]1OC(C)=O)C2(C)C [Euphorbia factor L7b] | 14% | 37% |  | 
Cl.Cl.O=C(C[C@H]1NCCC[C@@H]1O)Cn1cnc2ccccc2c1=O [Febrifugine (dihydrochloride)] | 30% | 2% |  | 
Clc1ccc(C(Cn2ccnc2)OCc2ccc(Sc3ccccc3)cc2)c(Cl)c1.O=[N+]([O-])O (stereo not drawn) [Fenticonazole (Nitrate)] | 45% | 13% |  | 
C=CC1=C(C)c2cc3[n-]c(cc4[n-]c(cc5nc(cc1n2)C(C)=C5C=C)c(C)c4CCC(=O)O)c(CCC(=O)O)c3C.[Fe+2] [Ferroheme] | 0% | 0% |  | 
COc1cc(/C=C/C(=O)[O-])ccc1O.[Na+] [Ferulic acid (sodium)] | 10% | 0% |  | 
COc1cc(/C=C/C(=O)O)ccc1O [Ferulic acid] | 58% | 8% |  | 
CCN1C[C@@]2(COC)[C@H]3[C@@H](OC)[C@H]4[C@@H]1[C@]3([C@@H](OC)C[C@H]2OC(C)=O)[C@@H]1C[C@@]2(O)[C@H](OC(=O)c3ccccc3)[C@@H]1[C@]4(OC(C)=O)[C@@H](O)[C@@H]2OC [Flaconitine] | 13% and 5% |  |  | 
C[C@@H]1O[C@@H]1P(=O)([O-])[O-].[Ca+2] [Fosfomycin (calcium)] | 4% | 0% |  | 
C/C1=C\C(=O)c2c(C)coc2C/C(C)=C/CC1 [Furanodienone] | 0% | 0% |  | 
CC(=O)O[C@H]1C[C@@]2(C)[C@@H](C[C@@H](O)[C@H]3[C@@]4(C)CC[C@@H](O)[C@@H](C)[C@@H]4CC[C@@]32C)/C1=C(\CCC=C(C)C)C(=O)[O-].[Na+] [Fusidic acid (sodium salt)] |  | 35% and 44% |  | 
